Laboratory results reported in ChEMBL document CHEMBL1140525, “Conformationally restricted macrocyclic analogues of combretastatins” (Bioorg Med Chem Lett, 2007).

How the values were obtained:
Tubulin (Homo sapiens) [1] = molecular target: T1, Tubulin (Homo sapiens) (UniProt P68371+Q9H4B7+P0DPH7+P68366+Q13509+Q71U36+P04350+Q3ZCM7+P07437+P68363+Q9BQE3+Q6PEY2+Q13885+Q9BVA1+Q9BUF5); assay: Inhibition of tubulin polymerization at 40 uM; format: protein-complex assay
Tubulin (Homo sapiens) [2] = molecular target: T1, Tubulin (Homo sapiens); assay: Inhibition of tubulin polymerization at 30 uM; format: protein-complex assay
Tubulin (Homo sapiens) [3] = molecular target: T1, Tubulin (Homo sapiens); assay: Inhibition of tubulin polymerization at 20 uM; format: protein-complex assay
Tubulin = assay: Inhibition of tubulin polymerization; format: protein-complex assay, Homo sapiens
Tubulin (Homo sapiens) [4] = molecular target: T1, Tubulin (Homo sapiens); assay: Inhibition of tubulin polymerization at 10 uM; format: protein-complex assay

Row | inhibition (Tubulin (Homo sapiens) [1]) | SMILES | other results
1 | 0% | COc1cc2cc(OC)c1OCCOCCOc1ccc(cc1)[C@@H]1OC(C)(C)O[C@H]21 | 
2 |  | COc1cc2cc(OC)c1OCCOCCOc1ccc(cc1)/C=C\2 | inhibition (Tubulin (Homo sapiens) [2]): 0%
3 | 4% | COc1cc2cc(OC)c1OCCCCCCOc1ccc(cc1)[C@H](O)[C@H]2O (relative stereo) | 
4 | 0% | COc1cc2cc(OC)c1OCCOCCOc1ccc(cc1)[C@@H](OC(C)=O)[C@H]2OC(C)=O (relative stereo) | 
5 | 0% | COc1cc2cc(OC)c1OCCOCCOc1ccc(cc1)[C@H](O)[C@H]2O | 
6 | 0% | COc1cc2cc(OC)c1OCCOCCOc1ccc(cc1OC(C)=O)[C@H](OC(C)=O)[C@H]2OC(C)=O (relative stereo) | 
7 | 0% | COc1cc2cc(OC)c1OCCOCCOc1ccc(cc1)[C@H](OC(C)=O)[C@H]2OC(C)=O (relative stereo) | 
8 |  | COc1cc2cc(OC)c1OCCCCCCn1ccc3cc(ccc31)[C@@H](O)[C@H]2O | inhibition (Tubulin (Homo sapiens) [3]): 11%
9 | 11% | COc1cc2cc(OC)c1OCCOCCOc1ccc(cc1O)[C@@H](O)[C@H]2O (relative stereo) | 
10 | 60% | COc1cc2cc(OC)c1OCCCCCCOc1ccc(cc1)/C=C\2 | 
11 |  | COc1ccc([C@@H](O)[C@H](O)c2cc(OC)c(OC)c(OC)c2)cc1O | IC50 (Tubulin): > 40 µM
12 |  | COc1cc2cc(OC)c1OCCCCCCn1ccc3cc(ccc31)[C@H](OC(C)=O)[C@H]2OC(C)=O | inhibition (Tubulin (Homo sapiens) [3]): 8%
13 | 0% | COc1cc2cc(OC)c1OCCOCCOc1ccc(cc1)[C@@H](O)[C@H]2O (relative stereo) | 
14 | 2% | COc1cc2cc(OC)c1OCCCCCCOc1ccc(cc1OC(C)=O)[C@H](OC(C)=O)[C@H]2OC(C)=O (relative stereo) | 
15 |  | COc1ccc([C@@H]2OCO[C@H]2c2cc(OC)c(OC)c(OC)c2)cc1O | IC50 (Tubulin): 4 µM
16 |  | COc1cc2cc(OC)c1OCCCCCCn1ccc3cc(ccc31)[C@@H](OC(C)=O)[C@H]2OC(C)=O | inhibition (Tubulin (Homo sapiens) [3]): 9%
17 | 0% | COc1cc2cc(OC)c1OCCOCCOc1ccc(cc1OC(C)=O)[C@@H](OC(C)=O)[C@H]2OC(C)=O (relative stereo) | 
18 |  | COc1cc2cc(OC)c1OCCCCCCn1ccc3cc(ccc31)[C@H](O)[C@H]2O | inhibition (Tubulin (Homo sapiens) [3]): 9%
19 |  | COc1ccc([C@H](O)[C@@H](O)c2cc(OC)c(OC)c(OC)c2)cc1O | IC50 (Tubulin): 22 µM
20 | 1% | COc1cc2cc(OC)c1OCCOCCOc1ccc(cc1O)[C@H](O)[C@H]2O (relative stereo) | 
21 | 0% | COc1cc2cc(OC)c1OCCCCCCOc1ccc(cc1)[C@H](OC(C)=O)[C@H]2OC(C)=O | 
22 |  | COc1ccc(/C=C\c2cc(OC)c(OC)c(OC)c2)cc1 | IC50 (Tubulin): 2.2 µM
23 |  | COc1cc2cc(OC)c1OCCCCCCn1ccc3cc(ccc31)/C=C\2 | inhibition (Tubulin (Homo sapiens) [4]): 19%
24 | 0% | COc1cc2cc(OC)c1OCCCCCCOc1ccc(cc1O)/C=C\2 | 
25 |  | COc1ccc([C@H]2OCO[C@@H]2c2cc(OC)c(OC)c(OC)c2)cc1O | IC50 (Tubulin): > 50 µM
26 |  | COc1ccc(C[C@@H](O)c2cc(OC)c(OC)c(OC)c2)cc1O [COMBRETASTATIN] | IC50 (Tubulin): 5 µM
